Laboratory results published in patent publication US20090275574A1, “NOVEL COMPOUNDS-300” (ASTRAZENECA AB, priority 2008, published 2009).

Tests used:
[1] = target: T1, hM5 (human Muscarinic receptor subtype 5) (Homo sapiens, UniProt P08912); test: Human M5 calcium mobilization FLIPR assay; format: cell-based; settings: hM5 expressed in CHO cells, intracellular Ca2+ release (FLIPR)
T1 construct: expressed in transfected cells; host or cells: CHO cells (ATCC)
T1 sequence (P08912 1-532): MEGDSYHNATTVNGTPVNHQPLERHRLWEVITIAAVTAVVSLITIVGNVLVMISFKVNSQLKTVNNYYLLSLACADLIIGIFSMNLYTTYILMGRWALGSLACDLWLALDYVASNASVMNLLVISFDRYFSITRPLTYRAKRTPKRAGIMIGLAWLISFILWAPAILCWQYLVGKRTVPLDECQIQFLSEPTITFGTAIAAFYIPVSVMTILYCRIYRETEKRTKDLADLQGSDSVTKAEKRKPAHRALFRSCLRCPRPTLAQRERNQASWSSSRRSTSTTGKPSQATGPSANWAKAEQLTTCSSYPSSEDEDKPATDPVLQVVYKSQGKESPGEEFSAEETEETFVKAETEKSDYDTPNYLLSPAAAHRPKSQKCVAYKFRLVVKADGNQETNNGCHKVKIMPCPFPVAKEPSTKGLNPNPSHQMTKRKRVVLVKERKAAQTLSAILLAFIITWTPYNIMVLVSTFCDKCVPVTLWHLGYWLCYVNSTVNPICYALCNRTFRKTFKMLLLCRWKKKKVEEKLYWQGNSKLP
Procedure: (§1) Human M1, rat M1, Human M3 and Human M5 Calcium Mobilization FLIPR™ Assay The compound activity in the present invention (EC50 or IC50) is measured using a 384 plate-based imaging assay that monitors drug induced intracellular Ca^2+ release in whole cells. Activation of hM1 (human Muscarinic receptor subtype 1, gene bank access NM_000738), rM1 (rat Muscarinic receptor subtype 1, gene bank access NM_080773), hM3 (human Muscarinic receptor subtype 3, gene bank access NM_000740NM_000740) and hM5 (human Muscarinic receptor subtype 5, gene bank access NM_0121258), receptors expressed in CHO cells (Chinese hamster ovary cells, ATCC) is quantified in a Molecular Devices FLIPR IITM instrument as an increase in fluorescent signal. Inhibition of hM3 and hM5 by compounds is determined by the decrease in fluorescent signal in response to 2 nM acetylcholine activation. […] Prior to experiment, the cell culture medium is removed from the plates by inversion. […] Plates are incubated at 37° C. for 60 minutes prior to start the experiment. The incubation is terminated by washing the cells four times in assay buffer, leaving a residual 25 μl buffer per well. Cell plates are then transferred to the FLIPR, ready for compound additions. The day of experiment, acetylcholine and compounds are diluted in assay buffer in three-fold concentration range (10 points serial dilution) for addition by FLIPR instrument. For all calcium assays, a baseline reading is taken for 10 seconds followed by the addition of 12.5 μl of compounds, resulting in a total well volume of 37.5 μl. Data is collected every second for 60 pictures and then every 6 seconds for 20 pictures prior to the addition of agonist. For hM3 and hM5, before agonist addition, a second baseline reading is taken for 10 seconds followed by the addition of 12.5 μl of agonist or buffer, producing a final volume of 50 μl. After agonist stimulation, the FLIPR continues to collect data every second for 60 pictures and then every 6 seconds for 20 pictures. The fluorescence emission is read using filter 1 (emission 510-570 nm) by the FLIPR on board CCD camera. Calcium mobilization output data are calculated as the maximal relative fluorescence unit (RFU) minus the minimal value for both compound and agonist reading frame (except for hM1 and rM1 using only the maximal RFU). Data are analyzed using sigmoidal fits of a non-linear curve-fitting program (XLfit version 4.2.2 Excel add-in version 4.2.2 build 18 math 1Q version 2.1.2 build 18). All pEC50 and pIC50 values are reported as arithmetic means±standard error of mean of ‘n’ independent experiments.

[2] = target: T2, hM3 (human Muscarinic receptor subtype 3) (Homo sapiens, UniProt P20309); test: Human M3 calcium mobilization FLIPR assay; format: cell-based; settings: hM3 expressed in CHO cells, intracellular Ca2+ release (FLIPR)
T2 construct: expressed in transfected cells; host or cells: CHO cells (ATCC)
Procedure: as §1

T2 sequence (P20309 whole entry): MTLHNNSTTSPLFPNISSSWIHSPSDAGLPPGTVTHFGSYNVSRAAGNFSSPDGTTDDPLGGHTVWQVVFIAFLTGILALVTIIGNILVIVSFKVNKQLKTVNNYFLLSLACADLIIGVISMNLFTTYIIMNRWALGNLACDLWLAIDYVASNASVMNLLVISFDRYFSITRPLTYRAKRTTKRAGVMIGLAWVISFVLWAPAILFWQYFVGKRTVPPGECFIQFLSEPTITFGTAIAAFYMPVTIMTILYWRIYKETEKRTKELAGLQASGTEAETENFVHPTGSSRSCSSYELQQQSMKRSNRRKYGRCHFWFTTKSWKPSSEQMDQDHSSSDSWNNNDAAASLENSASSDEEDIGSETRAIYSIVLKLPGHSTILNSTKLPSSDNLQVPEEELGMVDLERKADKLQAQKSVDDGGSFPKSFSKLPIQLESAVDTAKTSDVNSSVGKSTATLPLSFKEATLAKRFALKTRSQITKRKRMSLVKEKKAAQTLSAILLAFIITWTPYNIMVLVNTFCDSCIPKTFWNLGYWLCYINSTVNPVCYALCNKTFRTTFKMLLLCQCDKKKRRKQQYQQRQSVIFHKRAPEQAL

SMILES	EC50 [1]	EC50 [2]
O=C1COC2CCCC2N1C1CCN([C@H]2CC[C@@H](COCC3CC3)CC2)CC1 (single isomer, unassigned) [Example 48]	> 40 µM	> 40 µM
O=C1CO[C@H]2CCCC[C@@H]2N1C1CCN(C2CCC(COCC(F)F)CC2)CC1 (single isomer, unassigned) [Example 27]	> 40 µM	> 40 µM
CCOC[C@@H]1CC[C@H](N2CCC(N3C(=O)CO[C@H]4CCCC[C@@H]43)CC2)C1 [Example 43, (4aS,8aS)-4-(1-((1S,3R)-3-(ethoxymethyl)cyclopentyl)piperidin-4-yl)hexahydro-2H-benzo[b][1,4]oxazin-3(4H)-one]	> 40 µM	> 40 µM
CCOCC1CCC(N2CCC(N3C(=O)CO[C@H]4CCCC[C@@H]43)CC2)CC1 (single isomer, unassigned) [Example 14]	> 40 µM	> 40 µM
O=C1CO[C@H]2CCCC[C@@H]2N1C1CCN(C2CCC(COCC(F)F)CC2)CC1 (single isomer, unassigned) [Example 26]	> 40 µM	> 40 µM
CC(C)OCC1CCC(N2CCC(N3C(=O)CO[C@H]4CCC(F)(F)C[C@@H]43)CC2)CC1 (single isomer, unassigned) [Example 37]	> 40 µM	> 40 µM
CC(C)OCC1CCC(N2CCC(N3C(=O)CO[C@H]4CCCC[C@@H]43)CC2)CC1 (single isomer, unassigned) [Example 19]	> 40 µM	> 40 µM
O=C1CO[C@H]2CCCC[C@@H]2N1C1CCN(C2CCC(COCCF)CC2)CC1 (single isomer, unassigned) [Example 25]	> 40 µM	> 40 µM
CC(C)OCC1CCC(N2CCC(N3C(=O)CO[C@H]4CCCC[C@@H]43)CC2)CC1 (single isomer, unassigned) [Example 18]	> 40 µM	> 40 µM
CC(C)OCC1CCC(N2CCC(N3C(=O)NC[C@H]4CCCC[C@@H]43)CC2)CC1 (single isomer, unassigned) [Example 04]	> 40 µM	5.1 µM
CCOCC1CCC(N2CCC(N3C(=O)CO[C@H]4CCCC[C@@H]43)CC2)CC1 (single isomer, unassigned) [Example 13]	> 40 µM	> 40 µM
CC(C)OCC1CCC(N2CCC(N3C(=O)CO[C@H]4CCCC[C@@H]43)CC2)CC1 (mixture of isomers) [Example 15, (4aS,8aS)-4-(1-(4-(isopropoxymethyl)cyclohexyl)piperidin-4-yl)hexahydro-2H-benzo[b][1,4]oxazin-3(4H)-one]	> 40 µM	> 40 µM
CCOCC1CC(N2CCC(N3C(=O)CO[C@H]4CCCC[C@@H]43)CC2)C1 (single isomer, unassigned) [Example 39]	> 40 µM	> 40 µM

Results, then the compound that gave them:

EC50 [1]	EC50 [2]	SMILES
> 4.22 µM	> 2.1 µM	CCOC[C@H]1CC[C@@H](N2CCC(N3C(=O)CO[C@H]4CCCC[C@@H]43)CC2)C1 [Example 42, (4aS,8aS)-4-(1-((1R,3S)-3-(ethoxymethyl)cyclopentyl)piperidin-4-yl)hexahydro-2H-benzo[b][1,4]oxazin-3(4H)-one]
> 40 µM	> 40 µM	CCOCC1CCC(N2CCC(N3C(=O)CO[C@H]4CCCC[C@@H]43)CC2)C1 (single isomer, unassigned) [Example 45]
> 40 µM	> 40 µM	CC(C)OCC1CCC(N2CCC(N3C(=O)CO[C@H]4CCC(F)(F)C[C@@H]43)CC2)CC1 (single isomer, unassigned) [Example 38]
0.069 µM	1.1 µM	CCOCC1CCC(N2CCC(N3C(=O)NC[C@H]4CCCC[C@@H]43)CC2)CC1 (mixture of isomers) [Example 08, (4aR,8aS)-1-(1-(4-(ethoxymethyl)cyclohexyl)piperidin-4-yl)octahydroquinazolin-2(1H)-one]
> 40 µM	> 40 µM	O=C1CO[C@H]2CCCC[C@@H]2N1C1CCN(C2CCC(COCCF)CC2)CC1 (single isomer, unassigned) [Example 24]
> 40 µM	> 40 µM	CCCOCC1CCC(N2CCC(N3C(=O)NC[C@H]4CCCC[C@@H]43)CC2)CC1 (single isomer, unassigned) [Example 01]
> 15.7 µM	> 40 µM	O=C1NC[C@H]2CCCC[C@@H]2N1C1CCN(C2CCC(COCC(F)F)CC2)CC1 (single isomer, unassigned) [Example 51]
> 2.77 µM	1.6 µM	CCCOCC1CCC(N2CCC(N3C(=O)NC[C@H]4CCCC[C@@H]43)CC2)CC1 (single isomer, unassigned) [Example 02]
2.92 µM	> 10 µM	CCOCC1CCC(N2CCC(N3C(=O)CO[C@H]4CCCC[C@@H]43)CC2)C1 (single isomer, unassigned) [Example 44]
